According to US9744186B2 (priority 2012, dated 2017):

Legend:
HCV luciferase replicon [1] = experiment: HCV luciferase replicon IC50 assay in Huh7 cells; details: for IC50: Hepatitis C virus; for Therapeutic Index (TC50/IC50): TC50 in Huh7 / IC50 HCV replicon, 48 h
Protocol: Plating Cells: The Luciferase replicon cell line was passaged when it was at about 70% confluency. The cells were counted by using a hemocytometer and diluted to 1×10^5 cells per mL in DMEM+10% FBS+[…] G415. The cells were plated as follows: 100 μL of the cells (10,000 cells) per well in a white-walled 96-well plate. The cells were allowed to attach for 24 hours at 37° C.
(§1) Treating the cells: Media (DMEM+2% FBS) was pre-warmed to 37° C. […] The 96-well plate was removed from the 37° C. incubator, and the media replaced on the plate with the serial dilutions of the test drug. The plate was then returned to 37° C. for 48 h.
Luciferase Assay: The Bright-Glo reagent (Promega Corporation, Madison, Wis.) was removed from the −80° C. freezer and allowed to thaw it at 4° C. in the dark. The amount of reagent necessary for the experiment (3.65 mL) was removed, and the remaining reagent was returned to −80° C. The Glo Lysis Buffer and the Bright Glow reagent were allowed to warm to room temperature for 30 min in the dark. The 96 well plate was removed from the incubator and the cells to allowed cool to room temperature for 30 min. The media was removed from the cells, and each well was gently washed in 100 μL of phosphate buffered saline (PBS). The PBS was removed and then 50 μL of the Glo Lysis Buffer was added to each well, followed by gently rocking the plate for 15 min at room temperature in the dark to ensure complete cell lysis. To each well of the 96-well plate was added 50 μL of the Bright Glo reagent and it was mixed well with the lysate. The plate was inserted into a GloMax 96 plate reader and allowed to sit for 5 min in the dark for the luciferase reaction to reach a steady state. The luminescence on the plate was read by using the pre-installed “Bright Glo” Promega program (Synergy Software) and the data were collected and saved. The data were fit to a 4 parameter logistic curve using Kaleidagraph using the following equation: 100/(1+(x/m3)^m4).
The data in Table 1 were determined for cells exposed to drug for 48 h. The IC50 is the concentration of each compound necessary to inhibit the replication of the HCV luciferase replicon to 50%.
That is, the cells were exposed to drug for 2 h at 37° C., followed by 46 h at 37° C. or incubated in the presence of drug for 48 h at 37° C.

[2] = Compound solubility in media; format: physicochemical; details: DMEM+2% FBS cell culture media, 37 °C, plasma or biological fluid, kinetic from dmso stock; DMEM+2% FBS media
Protocol: as §1

[3] = TC50 MTS assay with human cancer cell lines: Huh7; format: cell-based; details: human, Huh7 cells; 96 h drug treatment
Protocol: (§2) Plating Cells: The Huh7, HEPG2, HEK293, MCF-7, PK9, RPK9, or BxPC3 cells were passaged when they were about 70% confluent. The cells were counted using a hemocytometer, and then diluted cells to 0.5×10^5 cells per mL in DMEM+10% FBS. 100 µL of the cells (5,000 cells) were plated per well in a clear 96-well plate. The cells were allowed to attach for 24 hours at 37° C.
(§3) Treating the cells: Pre-warm the DMEM media without phenol red+2% FBS media to 37° C. […] This will bring the final DMSO concentration to 0.5%. Use these 0.5 mM dilutions to further serially the drugs in DMEM without phenol red+2% FBS+0.5% DMSO. This will keep the concentration of DMSO in each condition identical. Remove the 96-well plate from the 37° C. incubator. Replace the media on the plate with the dilutions of the drugs. Stagger these treatments by 1 h and write the treatment time on each set of plates. Return to 37° C. for 48 h or 96 h as indicated.
(§4) MTS Assay: The reagents from CellTiter 96 kit (Promega Corporation, Madison, Wis.) were thawed at room temperature in the dark for 1 h. The 96-well plate was removed from the 37° C. incubator at 48 h after drug treatment. 20 μL of the combined MTS/PMS reagent to each well of the plate, mixed, and the plate returned to 37° C. The absorbance of each well at 490 nm and 650 nm was determined using the Flexstation 3 microplate reader in endpoint mode every hour for 3 h. The solutions in the wells were mixed prior to each reading. Fit Data to the Emax model: y=(Emax*x)/(TC50+x), where Emax is the maximum inhibition and TC50 is the inhibitory dose 50%. Alternatively, fit the data to the Emax sigmoidal model: y=(Emax*x^slope)/(TC50^slope+x^slope), where slope is the Hill Slope.
(§5) Each TC50 was the average value of three measurements as described herein. […] The RPK9 cells are deficient in deoxycytidine kinase (“dCK”) activity, an enzyme required for the initial phosphorylation of dFdC to dFdCMP (see FIG. 2).

[4] = TC50 MTS assay with human cancer cell lines: HEPG2; format: cell-based; details: HEPG2 cells, 96 h drug treatment
Protocol: as §2, §3, §4, §5

[5] = TC50 MTS assay with human cancer cell lines: HEK293; format: cell-based; details: HEK293 cells, 96 h drug treatment
Protocol: as §2, §3, §4, §5

[6] = TC50 MTS assay with human cancer cell lines: MCF-7; format: cell-based; details: MCF-7 cells, 96 h drug treatment
Protocol: as §2, §3, §4, §5

[7] = Stability test of HPLC-purified gemcitabine analogs at different pH conditions; format: physicochemical; details: 200 μM
Protocol: The solution was then incubated for 4 hours at 40° C. [table] HPLC analysis: 100 μl of the incubated solution was loaded onto the Vydac C18 analytical column 4.6/250 at 1 ml/min water with the following procedures: a. Inject 100 μl the incubated solution; b. Water for 5 minutes at 1 ml/min; c. 0-100% methanol over 30 minutes; d. Back to 20% methanol. Analysis: The standard HPLC analysis software was used to quantitate the area under each peak. Degradation peaks are quantitated as a percentage of the peak of the same amount of control sample (no heat treatment).

HCV luciferase replicon [8] = experiment: Reversal of anti-HCV activity by exogenous nucleosides; format: cell-based, hepatitis C virus (HCV); details: drug 1000, 100 or 25 nM; 50 μM cytidine or 2′-deoxycitidine; 48 h
Protocol: After 48 hours, the cells were lysed, and the total luciferase activity was determined. […] Where indicated, either 50 μM cytidine (C) or 50 μM 2′-deoxycitidine (dC) was also included.
The cells were plated, incubated with drug, and luciferase activity assayed essentially as described herein above. The incubation with drug was for 48 h.

[9] = Huh-7, 48 h, Huh7 cells containing HCV luciferase replicon, cells exposed to drug for 48 h
[10] = Pretreatment (control sample, no heat treatment)

Structure (SMILES) | IC50 (HCV luciferase replicon [1]; [9]) | Therapeutic Index (TC50/IC50) (HCV luciferase replicon [1]) | solubility [2] | CC50 at 96 h [3] | CC50 at 96 h [4] | CC50 at 96 h [5] | CC50 at 96 h [6] | % remaining [7, 10] | % remaining ([7]; pH 1, 4 hours at 40° C.) | % remaining ([7]; pH 2, 4 hours at 40° C.) | % remaining ([7]; pH 4, 4 hours at 40° C.) | % remaining ([7]; pH 6, 4 hours at 40° C.) | % remaining ([7]; pH 8, 4 hours at 40° C.) | reversal of the inhibition of the HCV luciferase replicon by deoxycytidine and cytidine (HCV luciferase replicon [8]) | IC50 (HCV luciferase replicon [1]; Huh-7, 48 h, cells incubated with drug continuously for 48 h (Table 5)) | IC50 (HCV luciferase replicon [1]; Huh-7, cells incubated with drug for 2 h, followed by 46 h without drug)
O=C(Nc1ccn([C@@H]2O[C@H](CO)[C@@H](O)C2(F)F)c(=O)n1)c1cc(Cl)cc(Cl)c1 [GCB, N^4-(3,5-Dichlorobenzoyl)gemcitabine] | 25.5 ± 2.2 nM | 4310 | < 500 µM | 4.17 ± 1.06 µM | 633 ± 207 nM | 1190 ± 180 nM | 326 ± 88 nM | 100% | 35% | 82% | 98.4% | 99.6% | 35.4% | reversal | – | –
COc1cc(C(=O)Nc2ccn([C@@H]3O[C@H](CO)[C@@H](O)C3(F)F)c(=O)n2)cc(OC)c1OC [GTB, N^4-(3,4,5-Trimethoxybenzoyl)gemcitabine] | 49.3 ± 8.8 nM | 10040 | > 500 µM | 5.05 ± 1.22 µM | 1670 ± 420 nM | 1280 ± 260 nM | 566 ± 118 nM | 100% | 86% | 87% | 98.6% | 99.5% | 82.7% | reversal | 49.3 ± 8.8 nM | 2770 ± 265 nM
